Source: patent US7098219B2, “Inhibitors of cellular efflux pumps of microbes” (Wockhart Limited, priority 2000, dated 2006)

What follows are compounds tested on Staphylococcus aureus 1199 B NorA+. Conditions: combination with ciprofloxacin, broth microdilution checkerboard, 35° C. 20 hours; FIC index ≦0.5 synergistic, 0.5–2.0 additive, >2.0 antagonistic.
Format: cell-based
Text: Testing method for inhibition of the efflux pump of Staphylococcus aureus 1199B NorA^+
[…]. Victor Lorian, Md., Fourth edition 1996, pp 333–338).
In short, the assay involves broth microdilution method performed as recommended by the National Committee for Clinical Laboratory Standards (NCCLS) 1997 (Methods for Dilution of Antimicrobial Susceptibility Tests for Bacteria that Grow Aerobically, Fourth edition; Approved Standard, NCCLS document M7-A4, vol. 17, No. 2). The test organism used for the assay is Staphylococcus aureus 1199 B NorA^+.
[…]. Stock solutions of the efflux pump inhibitors tested are prepared in dimethyl sulfoxide (DMSO) at a final concentration of 5 mg/ml. Stock solutions are further diluted in Mueller Hinton Broth as per the need of the assay. Ciprofloxacin is dissolved in water.
The checkerboard assay is performed in microtiter plates. […] The efflux pump inhibitor is diluted in the Y-axis, each row containing an equal concentration of efflux pump inhibitor. The result of these manipulations is that each well of the microtiter plate contains a unique combination of concentrations of the two agents. Bacterial inoculum is added at 5×10^5 CFU/ml. Microtiter plates are incubated at 35° C. for 20 hours. Reading is done by visibly noting turbidity and confirmed using a microtiter plate reader (Molecular Devices). The FIC index is calculated as
(A) is the concentration of the experimental efflux pump inhibitor in the well that is the lowest inhibitory concentration in the Y-axis. (MICA) is the MIC of Staphylococcus aureus to experimental efflux pump inhibitor alone. FICA is the fractional inhibitory concentration of an experimental efflux pump inhibitor. […] (Antimicrobial Combination In Antibiotics in Laboratory Medicine, Ed. Victor Lorian, Md., Fourth edition 1996, pp 333–338).
With “5-Amino-1-ethyl-6,8-difluoro-1,4-dihydro-7-[(1∝,5∝,6∝)-6′-(N-t-butoxycarbonylamino)-3-azabicyclo[3.1.0]-hex-3-yl}-4-oxo-quinoline-3-carboxylic acid [Example 8 (NorA)]” the “FIC INDEX” value was 0.314. In the case of `CCn1cc(C(=O)O)c(=O)c2cc(F)c(N3CCc4ccccc4C3)cc21` [1 (NorA), 1-Ethyl-6-fluoro-1,4-dihydro-7-(1′,2′,3′,4′-tetrahydroisoquinolin-2-yl)-4-oxo-quinoline-3-carboxylic acid], the “FIC INDEX” value is reported as 0.314. In the case of `CCn1cc(C(=O)O)c(=O)c2c(N)c(F)c(N3CC(N)CC3C)c(F)c21` (stereo not drawn) [5 (NorA), 5-Amino-1-ethyl-6,8-difluoro-1,4-dihydro-7-(3′-amino-5′-methylpyrrolidin-1-yl)-4-oxo-quinoline-3-carboxylic acid], the “FIC INDEX” value is reported as 0.378. `CC(=O)NC1CC(C)N(c2cc3c(cc2F)c(=O)c(C(=O)O)cn3C2CC2)C1` (stereo not drawn) [9 (NorA), 1-Cyclopropyl-6-fluoro-1,4-dihydro-7-(3′-acetamido-5′-methylpyrrolidin-1-yl)-4-oxo-quinoline-3-carboxylic acid] was tested, and the “FIC INDEX” value was 0.314. With `COc1c(N2CCC(N(C)C)C(C)C2)c(F)cc2c(=O)c(C(=O)O)cn(C3CC3)c12` (stereo not drawn) [19 (NorA), 1-Cyclopropyl-6-fluoro-8-methoxy-1,4-dihydro-7-{4′-(N-dimethylamino)-3′-methylpiperidin-1-yl}-4-oxo-quinoline-3-carboxylic acid] the “FIC INDEX” value was 0.200. In the case of `O=C(O)c1cn(-c2ccc(F)cc2F)c2nc(NC3CCN(c4cc5c(cc4F)c(=O)c(C(=O)O)cn5C4CC4)C3)c(F)cc2c1=O` (stereo not drawn) [Bis compound 1, N-1-{7-(1-cyclopropyl-6-fluoro-1,4-dihydro-4-oxo-quinoline-3-carboxylic acid)}-N-3-amino-{7-(1-(2,4-difluorophenyl)-6-fluoro-1,4-dihydro-4-oxo-1,8-naphthyridine-3-carboxylic acid)}-pyrrolidine], the “FIC INDEX” value is reported as 0.253. For `O=C(O)c1cn(C2CC2)c2nc(NC3CCN(c4nc5c(cc4F)c(=O)c(C(=O)O)cn5C4CC4)C3)c(F)cc2c1=O` (stereo not drawn) [Bis compound 2], the “FIC INDEX” value was 0.282. `Nc1c(F)c(NC2CCN(c3nc4c(cc3F)c(=O)c(C(=O)O)cn4C3CC3)C2)c(F)c2c1c(=O)c(C(=O)O)cn2C1CC1` (stereo not drawn) [Bis compound 3] was tested, and the “FIC INDEX” value was 0.314. For `Nc1c(F)c(N2CCN(c3nc4c(cc3F)c(=O)c(C(=O)O)cn4C3CC3)CC2)c(F)c2c1c(=O)c(C(=O)O)cn2C1CC1` [Bis compound 4, N-1-{7-(1-cyclopropyl-6-fluoro-1,4-dihydro-4-oxo-1,8-naphthyridine-3-carboxylic acid)}-N-4-{7-(1-cyclopropyl-6,8-difluoro-5-amino-1,4-dihydro-4-oxo-quinoline-3-carboxylic acid)}-piperazine], the “FIC INDEX” value was 0.282. For `Cc1c(F)c(N2CCC(Nc3nc4c(cc3F)c(=O)c(C(=O)O)cn4-c3ccc(F)cc3F)C2)cc2c1c(=O)c(C(=O)O)cn2C1CC1` (stereo not drawn) [Bis compound 5, N-1-{7-(1-cyclopropyl-6-fluoro-5-methyl-1,4-dihydro-4-oxo-quinolone-3-carboxylic acid)}-N-3-amino-{7-(1-(2,4-difluorophenyl)-6-fluoro-1,4-dihydro-4-oxo-1,8-naphthyridine-3-carboxylic acid)}-pyrrolidine], the “FIC INDEX” value was 0.320. `Cc1c(F)c(N2CCC(Nc3c(F)c(N)c4c(=O)c(C(=O)O)cn(C5CC5)c4c3F)CC2)cc2c1c(=O)c(C(=O)O)cn2C1CC1` [Bis compound 6, N-1-{7-(1-cyclopropyl-6-fluoro-5-methyl-1,4-dihydro-4-oxo-quinolone-3-carboxylic acid)}-N-4-amino{7-(1-cyclopropyl-6,8-difluoro-5-amino-1,4-dihydro-4-oxo-quinoline-3-carboxylic acid)}-piperidine] was tested, and the “FIC INDEX” value was 0.304. With `Cc1c(F)c(N2CCC(Nc3c(F)c(N)c4c(=O)c(C(=O)O)cn(C5CC5)c4c3F)C2)cc2c1c(=O)c(C(=O)O)cn2C1CC1` (stereo not drawn) [Bis compound 7, N-1-{7-(1-cyclopropyl-6-fluoro-5-methyl-1,4-dihydro-4-oxo-quinolone-3-carboxylic acid)}-N-3-amino{7-(1-cyclopropyl-6,8-difluoro-5-amino-1,4-dihydro-4-oxo-quinoline-3-carboxylic acid)}-pyrrolidine] the “FIC INDEX” value was 0.304. `O=C(O)c1cn(-c2ccc(F)cc2F)c2nc(N3CCN(c4cc5c(cc4F)c(=O)c(C(=O)O)cn5C4CC4)CC3)c(F)cc2c1=O` [Bis compound 8, N-1-{7-(1-(2,4-difluorophenyl)-6-fluoro-1,4-dihydro-4-oxo-1,8-naphthyridine-3-carboxylic acid)}-N-4-{7-(1-cyclopropyl-6-fluoro-1,4-dihydro-4-oxo-quinoline-3-carboxylic acid)}-piperazine] was tested, and the “FIC INDEX” value was 0.192. `CCOC(=O)c1cc(F)c(NC2CCN(c3c(F)c(N)c4c(=O)c(C(=O)O)cn(C5CC5)c4c3F)CC2)c(F)c1F` [Bis compound 10, N-1-{7-(1-cyclopropyl-6,8-difluoro-5-amino-1,4-dihydro-4-oxo-quinolone-3-carboxylic acid)}-N-4-amino-{ethyl 2,3,6-trifluorophenyl-4-carboxylate}-piperidine] was tested, and the “FIC INDEX” value was 0.304. `CCn1cc(C(=O)O)c(=O)c2cc(F)c(N3CCC(OC(C)=O)CC3)c(F)c21` [Example 2 (NorA), 1-Ethyl-6,8-fluoro-1,4-dihydro-7-(4′-acetoxypiperidin-1-yl)-4-oxo-quinoline-3-carboxylic acid] was tested, and the “FIC INDEX” value was 0.314. `CCn1cc(C(=O)O)c(=O)c2cc(F)c(N3CCN(CCN4CCOC4=O)CC3)c(F)c21` [Example 3 (NorA), 1-Ethyl-6,8-fluoro-1,4-dihydro-7-(4′-{2′-(2′-oxazolidin-1yl)ethyl}piperazin-1-yl)-4-oxo-quinoline-3-carboxylic acid] was tested, and the “FIC INDEX” value was 0.188. For `CCn1cc(C(=O)O)c(=O)c2c(N)c(F)c(N3CCC(N)CC3)c(F)c21` [Example 6 (NorA), 5-Amino-1-ethyl-6,8-difluoro-1,4-dihydro-7-(4′-aminopiperidin-1-yl)-4-oxo-quinoline-3-carboxylic acid], the “FIC INDEX” value was 0.314. In the case of `CCn1cc(C(=O)O)c(=O)c2c(N)c(F)c(N3CCC(NC(C)=O)CC3)c(F)c21` [Example 7 (NorA), 5-Amino-1-ethyl-6,8-difluoro-1,4-dihydro-7-{4′-(acetamido)piperidin-1-yl}-4-oxo-quinoline-3-carboxylic acid], the “FIC INDEX” value is reported as 0.312. For `CC1CC(N)CN1c1cc2c(cc1F)c(=O)c(C(=O)O)cn2C1CC1` (stereo not drawn) [Example 10 (NorA), 1-Cyclopropyl-6-fluoro-1,4-dihydro-7-(3′-amino-5′-methylpyrrolidin-1-yl)-4-oxo-quinoline-3-carboxylic acid], the “FIC INDEX” value was 0.314. For `CC(=O)OC1CCN(c2cc3c(cc2F)c(=O)c(C(=O)O)cn3C2CC2)CC1` [Example 11 (NorA), 1-Cyclopropyl-6-fluoro-1,4-dihydro-7-(4′-acetoxypiperidin-1-yl)-4-oxo-quinoline-3-carboxylic acid], the “FIC INDEX” value was 0.282. With `CN(C)C1CCN(c2cc3c(cc2F)c(=O)c(C(=O)O)cn3C2CC2)CC1` [Example 12 (NorA), 1-Cyclopropyl-6-fluoro-1,4-dihydro-7-(4′-(N-dimethylamino)piperidin-1-yl)-4-oxo-quinoline-3-carboxylic acid] the “FIC INDEX” value was 0.188.
